Results reported in ChEMBL document CHEMBL3576861, “Methyl 3-((6-methoxy-1,4-dihydroindeno[1,2-c]pyrazol-3-yl)amino)benzoate (GN39482) as a tubulin polymerization inhibitor identified by MorphoBase and ChemProteoBase profiling methods” (J Med Chem, 2015).
Calls of active or inactive are those of the source. The calls are words filed in the database; no cut-off is given here.

Tests used:
[1] = tested on: HEK293; experiment: Antiproliferative activity against HEK293 cells assessed as inhibition of cell viability after 72 hrs by MTT assay; assay type: cell-based; conditions: Homo sapiens, HEK293, 72 h
[2] = tested on: HeLa; experiment: Antiproliferative activity against human HeLa cells assessed as inhibition of cell viability after 72 hrs by MTT assay; assay type: functional, cell-based
[3] = tested on: HCT-116; experiment: Antiproliferative activity against human HCT116 cells assessed as inhibition of cell viability after 72 hrs by MTT assay; assay type: functional, cell-based; conditions: HCT-116, 72 h
[4] = tested on: PC-3; experiment: Antiproliferative activity against human PC3 cells assessed as inhibition of cell viability after 72 hrs by MTT assay; assay type: functional, cell-based; conditions: PC-3, 72 h
[5] = target: T1, Tubulin (Homo sapiens) (UniProt P68371+Q9H4B7+P0DPH7+P68366+Q13509+Q71U36+P04350+Q3ZCM7+P07437+P68363+Q9BQE3+Q6PEY2+Q13885+Q9BVA1+Q9BUF5); experiment: Inhibition of acetylated tubulin accumulation in human HeLa cells at 1000 nM after 6 hrs by Western blot analysis; assay type: cell-based
[6] = target: T1, Tubulin (Homo sapiens); experiment: Inhibition of tubulin polymerization in human HeLa cells assessed as reduction of microtubule formation at 100 nM after 6 hrs by DAPI staining-based immunofluorescence assay; assay type: cell-based
[7] = tested on: HeLa; experiment: Cell cycle arrest in human HeLa cells assessed as accumulation at G2/M phase at 3 to 30 uM after 24 hrs by propidium iodide staining based flow cytometry; assay type: functional
[8] = tested on: HeLa; experiment: Cell cycle arrest in human HeLa cells assessed as accumulation at G2/M phase at 0.3 to 30 nM after 24 hrs by propidium iodide staining based flow cytometry; assay type: functional
[9] = tested on: HeLa; experiment: Cell cycle arrest in human HeLa cells assessed as accumulation at G2/M phase at 100 nM after 24 hrs by propidium iodide staining based flow cytometry; assay type: functional
[10] = target: T1, Tubulin (Homo sapiens); experiment: Inhibition of tubulin polymerization in human HeLa cells assessed as reduction of microtubule formation at 300 nM after 6 hrs by DAPI staining-based immunofluorescence assay; assay type: cell-based
[11] = target: T1, Tubulin (Homo sapiens); experiment: Inhibition of acetylated tubulin accumulation in human HeLa cells at 300 nM after 6 hrs by Western blot analysis; assay type: cell-based
[12] = tested on: Pyricularia oryzae; experiment: Antimicrobial activity against Magnaporthe oryzae Kita-1 at 100 nM after 48 hrs by standard microdilution method; assay type: functional, organism-based
[13] = tested on: Plasmodium falciparum; experiment: Antimalarial activity against Plasmodium falciparum 3D7 infected in human erythrocytes assessed as LDH activity at 100 nM after 72 hrs by plate reader analysis; assay type: functional, organism-based
[14] = target: Epidermal growth factor receptor (Homo sapiens) (UniProt P00533); experiment: Inhibition of N-terminal GST fusion protein human EGFR cytoplasmic domain expressed in baculovirus using Srctide as substrate at 0.1 uM after 1 hr by off-chip Mobility Shift Assay
Chain of Epidermal growth factor receptor (Homo sapiens) (P00533 whole entry, the tested form may be a part): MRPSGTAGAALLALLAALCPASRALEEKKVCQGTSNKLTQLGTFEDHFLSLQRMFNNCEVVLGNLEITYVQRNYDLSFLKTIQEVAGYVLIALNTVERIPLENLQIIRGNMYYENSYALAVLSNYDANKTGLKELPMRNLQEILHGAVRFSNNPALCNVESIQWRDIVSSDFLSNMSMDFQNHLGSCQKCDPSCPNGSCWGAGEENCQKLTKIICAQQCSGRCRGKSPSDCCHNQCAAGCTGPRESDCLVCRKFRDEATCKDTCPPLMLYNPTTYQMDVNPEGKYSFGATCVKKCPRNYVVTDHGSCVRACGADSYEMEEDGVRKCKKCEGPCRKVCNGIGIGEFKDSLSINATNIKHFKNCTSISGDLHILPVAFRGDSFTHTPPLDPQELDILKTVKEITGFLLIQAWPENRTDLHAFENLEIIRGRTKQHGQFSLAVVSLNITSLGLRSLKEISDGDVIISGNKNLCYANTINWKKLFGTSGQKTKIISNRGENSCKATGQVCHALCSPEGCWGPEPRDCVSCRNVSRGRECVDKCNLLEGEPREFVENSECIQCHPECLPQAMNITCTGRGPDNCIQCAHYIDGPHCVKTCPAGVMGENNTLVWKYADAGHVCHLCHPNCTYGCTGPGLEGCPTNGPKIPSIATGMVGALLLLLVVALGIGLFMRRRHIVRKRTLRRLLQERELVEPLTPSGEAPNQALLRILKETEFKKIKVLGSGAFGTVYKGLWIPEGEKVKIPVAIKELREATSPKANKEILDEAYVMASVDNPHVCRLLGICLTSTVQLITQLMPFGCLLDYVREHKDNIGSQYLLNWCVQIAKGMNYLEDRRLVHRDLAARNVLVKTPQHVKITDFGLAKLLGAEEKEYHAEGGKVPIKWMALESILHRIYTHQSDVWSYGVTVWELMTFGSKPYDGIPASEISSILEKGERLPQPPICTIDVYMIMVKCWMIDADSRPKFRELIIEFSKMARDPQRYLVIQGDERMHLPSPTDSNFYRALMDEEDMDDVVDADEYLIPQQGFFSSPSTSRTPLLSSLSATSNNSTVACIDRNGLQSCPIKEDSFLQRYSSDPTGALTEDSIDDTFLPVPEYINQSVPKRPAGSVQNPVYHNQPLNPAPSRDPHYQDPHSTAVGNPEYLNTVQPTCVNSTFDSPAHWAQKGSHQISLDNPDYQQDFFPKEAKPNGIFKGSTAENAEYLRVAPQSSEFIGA

[15] = tested on: Staphylococcus aureus; experiment: Antimicrobial activity against Staphylococcus aureus 209 at 100 nM after 24 hrs by standard microdilution method; assay type: functional, organism-based
[16] = target: Platelet-derived growth factor receptor beta (Homo sapiens) (UniProt P09619); experiment: Inhibition of N-terminal GST fusion protein human PDGFR-beta cytoplasmic domain expressed in baculovirus using CSKtide as substrate at 0.1 uM after 1 hr by off-chip Mobility Shift Assay
Chain of Platelet-derived growth factor receptor beta (Homo sapiens) (P09619 whole entry, the tested form may be a part): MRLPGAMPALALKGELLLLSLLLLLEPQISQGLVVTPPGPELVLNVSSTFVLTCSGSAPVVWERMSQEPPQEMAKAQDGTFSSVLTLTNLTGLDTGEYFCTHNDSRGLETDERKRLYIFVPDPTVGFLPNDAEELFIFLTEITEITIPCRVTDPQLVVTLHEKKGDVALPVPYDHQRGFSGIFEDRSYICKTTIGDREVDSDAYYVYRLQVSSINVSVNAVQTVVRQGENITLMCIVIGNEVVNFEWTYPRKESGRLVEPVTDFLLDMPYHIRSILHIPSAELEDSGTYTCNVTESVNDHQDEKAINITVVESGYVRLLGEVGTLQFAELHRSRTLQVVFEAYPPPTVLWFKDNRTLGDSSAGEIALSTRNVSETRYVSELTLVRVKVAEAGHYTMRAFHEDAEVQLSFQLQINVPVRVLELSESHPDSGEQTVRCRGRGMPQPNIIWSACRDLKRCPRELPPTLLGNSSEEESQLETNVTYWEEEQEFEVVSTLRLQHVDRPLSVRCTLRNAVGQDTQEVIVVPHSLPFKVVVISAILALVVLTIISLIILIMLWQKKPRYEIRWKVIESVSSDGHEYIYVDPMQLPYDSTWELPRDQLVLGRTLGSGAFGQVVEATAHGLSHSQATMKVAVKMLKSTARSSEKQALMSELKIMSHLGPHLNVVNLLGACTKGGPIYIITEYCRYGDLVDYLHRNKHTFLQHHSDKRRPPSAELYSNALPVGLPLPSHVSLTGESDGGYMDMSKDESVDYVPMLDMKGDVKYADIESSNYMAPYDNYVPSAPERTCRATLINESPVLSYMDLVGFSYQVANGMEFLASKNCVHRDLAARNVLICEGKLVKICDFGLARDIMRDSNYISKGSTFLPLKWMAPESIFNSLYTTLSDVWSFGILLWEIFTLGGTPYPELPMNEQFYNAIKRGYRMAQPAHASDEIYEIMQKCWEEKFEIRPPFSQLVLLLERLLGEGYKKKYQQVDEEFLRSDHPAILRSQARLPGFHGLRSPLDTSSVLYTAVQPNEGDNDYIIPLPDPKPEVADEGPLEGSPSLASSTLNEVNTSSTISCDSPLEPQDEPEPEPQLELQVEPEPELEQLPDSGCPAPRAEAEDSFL

[17] = tested on: Aspergillus fumigatus; experiment: Antimicrobial activity against Aspergillus fumigatus Af293 at 100 nM after 48 hrs by standard microdilution method; assay type: functional
[18] = target: Platelet-derived growth factor receptor beta (Homo sapiens) (UniProt P09619); experiment: Inhibition of N-terminal GST fusion protein human PDGFR-beta cytoplasmic domain expressed in baculovirus using CSKtide as substrate at 10 uM after 1 hr by off-chip Mobility Shift Assay
[19] = target: Vascular endothelial growth factor receptor 2 (Homo sapiens) (UniProt P35968); experiment: Inhibition of N-terminal GST fusion protein human KDR cytoplasmic domain expressed in baculovirus using CSKtide as substrate at 10 uM after 1 hr by off-chip Mobility Shift Assay
Chain of Vascular endothelial growth factor receptor 2 (Homo sapiens) (P35968 whole entry, the tested form may be a part): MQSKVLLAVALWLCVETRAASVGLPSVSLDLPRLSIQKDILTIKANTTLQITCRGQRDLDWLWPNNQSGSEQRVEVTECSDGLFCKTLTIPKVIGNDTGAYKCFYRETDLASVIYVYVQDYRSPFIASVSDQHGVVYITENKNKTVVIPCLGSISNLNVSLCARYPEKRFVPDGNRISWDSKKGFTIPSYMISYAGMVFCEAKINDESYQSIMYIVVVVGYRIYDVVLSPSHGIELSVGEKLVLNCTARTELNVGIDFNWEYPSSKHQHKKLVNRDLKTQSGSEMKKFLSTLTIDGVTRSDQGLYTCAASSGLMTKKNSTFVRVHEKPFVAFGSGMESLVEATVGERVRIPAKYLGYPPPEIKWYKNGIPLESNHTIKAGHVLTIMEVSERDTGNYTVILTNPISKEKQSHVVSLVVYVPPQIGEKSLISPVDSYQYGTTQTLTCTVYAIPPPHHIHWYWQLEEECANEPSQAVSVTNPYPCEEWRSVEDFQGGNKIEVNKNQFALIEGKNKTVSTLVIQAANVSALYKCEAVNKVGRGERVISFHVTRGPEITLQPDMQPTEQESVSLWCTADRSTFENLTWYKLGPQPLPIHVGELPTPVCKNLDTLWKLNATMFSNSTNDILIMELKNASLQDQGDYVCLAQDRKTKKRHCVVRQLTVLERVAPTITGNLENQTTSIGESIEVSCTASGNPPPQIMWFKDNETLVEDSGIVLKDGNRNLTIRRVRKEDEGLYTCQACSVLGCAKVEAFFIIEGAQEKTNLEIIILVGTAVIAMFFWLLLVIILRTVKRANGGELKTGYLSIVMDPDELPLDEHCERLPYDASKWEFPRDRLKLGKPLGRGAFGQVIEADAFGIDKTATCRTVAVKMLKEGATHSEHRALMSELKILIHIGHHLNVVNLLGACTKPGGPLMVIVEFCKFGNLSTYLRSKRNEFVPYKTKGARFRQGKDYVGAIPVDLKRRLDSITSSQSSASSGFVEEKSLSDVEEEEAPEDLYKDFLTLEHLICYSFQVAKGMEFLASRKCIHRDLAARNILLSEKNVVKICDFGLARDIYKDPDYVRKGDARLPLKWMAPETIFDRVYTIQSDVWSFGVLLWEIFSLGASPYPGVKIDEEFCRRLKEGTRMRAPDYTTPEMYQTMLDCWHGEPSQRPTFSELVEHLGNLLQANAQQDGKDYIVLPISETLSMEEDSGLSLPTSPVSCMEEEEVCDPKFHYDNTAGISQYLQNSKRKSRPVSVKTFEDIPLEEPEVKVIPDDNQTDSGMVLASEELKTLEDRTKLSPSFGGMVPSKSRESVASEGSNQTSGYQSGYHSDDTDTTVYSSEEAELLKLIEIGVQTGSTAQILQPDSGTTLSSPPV

[20] = target: T2, Cyclin-dependent kinase 2/cyclin E1 (Homo sapiens) (UniProt P24864+P24941); experiment: Inhibition of N-terminal GST-tagged human full length CDK2/Cyclin E1 expressed in baculovirus using histone H1 as substrate at 0.1 uM after 1 hr by off-chip Mobility Shift Assay
[21] = target: T2, Cyclin-dependent kinase 2/cyclin E1 (Homo sapiens); experiment: Inhibition of N-terminal GST-tagged human full length CDK2/Cyclin E1 expressed in baculovirus using histone H1 as substrate at 10 uM after 1 hr by off-chip Mobility Shift Assay
[22] = tested on: Escherichia coli; experiment: Antimicrobial activity against Escherichia coli HO141 at 100 nM after 24 hrs by standard microdilution method; assay type: functional, organism-based
[23] = tested on: Candida albicans; experiment: Antimicrobial activity against Candida albicans JCM1542 at 100 nM after 24 hrs by standard microdilution method; assay type: functional, organism-based
[24] = target: Tubulin (Sus scrofa) (UniProt P02554+P02550); experiment: Inhibition of porcine tubulin polymerization measured every min for 1 hr by fluorescence analysis; assay type: protein assay
Chain of Tubulin (Sus scrofa) (P02550 whole entry, looked up): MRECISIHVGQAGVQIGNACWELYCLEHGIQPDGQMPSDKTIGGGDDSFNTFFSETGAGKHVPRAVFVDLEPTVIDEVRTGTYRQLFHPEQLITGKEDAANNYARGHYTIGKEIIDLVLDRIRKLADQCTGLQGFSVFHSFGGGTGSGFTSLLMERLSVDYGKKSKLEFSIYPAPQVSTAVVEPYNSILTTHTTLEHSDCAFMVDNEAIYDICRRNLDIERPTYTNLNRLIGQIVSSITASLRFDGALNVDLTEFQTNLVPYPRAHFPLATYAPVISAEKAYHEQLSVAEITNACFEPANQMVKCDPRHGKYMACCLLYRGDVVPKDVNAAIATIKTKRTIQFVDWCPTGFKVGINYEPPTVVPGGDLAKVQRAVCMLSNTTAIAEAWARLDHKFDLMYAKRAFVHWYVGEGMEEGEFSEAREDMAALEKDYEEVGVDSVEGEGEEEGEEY
Chain of Tubulin (Sus scrofa) (P02554 whole entry, looked up): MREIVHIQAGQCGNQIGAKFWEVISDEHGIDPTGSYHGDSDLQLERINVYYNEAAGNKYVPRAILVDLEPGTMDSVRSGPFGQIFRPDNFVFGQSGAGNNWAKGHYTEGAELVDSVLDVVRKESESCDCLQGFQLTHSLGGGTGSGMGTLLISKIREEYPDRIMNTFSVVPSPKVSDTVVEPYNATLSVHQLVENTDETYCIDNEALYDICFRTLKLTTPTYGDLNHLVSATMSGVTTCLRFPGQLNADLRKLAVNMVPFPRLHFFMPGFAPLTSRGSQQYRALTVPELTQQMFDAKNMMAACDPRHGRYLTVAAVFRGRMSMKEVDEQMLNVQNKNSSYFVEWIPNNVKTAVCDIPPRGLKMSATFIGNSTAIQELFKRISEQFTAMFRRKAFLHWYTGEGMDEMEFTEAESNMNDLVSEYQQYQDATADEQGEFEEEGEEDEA

[25] = target: T1, Tubulin (Homo sapiens); experiment: Inhibition of acetylated tubulin accumulation in human HeLa cells at 1 to 100 nM after 6 hrs by Western blot analysis; assay type: cell-based
[26] = target: Vascular endothelial growth factor receptor 2 (Homo sapiens) (UniProt P35968); experiment: Inhibition of N-terminal GST fusion protein human KDR cytoplasmic domain expressed in baculovirus using CSKtide as substrate at 0.1 uM after 1 hr by off-chip Mobility Shift Assay
[27] = target: T3, Serine/threonine-protein kinase Chk1 (Homo sapiens) (UniProt O14757); experiment: Inhibition of human full length N-terminal GST fusion protein CHK1 expressed in baculovirus using CHKtide as substrate at 0.1 uM after 1 hr by off-chip Mobility Shift Assay
T3 sequence (whole entry): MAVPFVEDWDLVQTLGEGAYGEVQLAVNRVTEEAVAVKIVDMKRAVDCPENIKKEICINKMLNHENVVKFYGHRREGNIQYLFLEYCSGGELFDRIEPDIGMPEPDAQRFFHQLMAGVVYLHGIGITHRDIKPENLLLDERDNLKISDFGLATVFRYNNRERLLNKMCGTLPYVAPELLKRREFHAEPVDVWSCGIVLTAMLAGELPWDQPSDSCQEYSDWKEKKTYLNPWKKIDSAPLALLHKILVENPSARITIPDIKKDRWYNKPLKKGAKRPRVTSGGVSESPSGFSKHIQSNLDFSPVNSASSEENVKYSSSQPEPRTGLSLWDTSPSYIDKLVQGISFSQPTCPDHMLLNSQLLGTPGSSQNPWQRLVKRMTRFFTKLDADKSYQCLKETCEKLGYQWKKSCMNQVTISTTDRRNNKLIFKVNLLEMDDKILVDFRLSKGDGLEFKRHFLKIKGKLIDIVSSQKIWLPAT

[28] = target: CDK4/Cyclin D3 (Homo sapiens) (UniProt P11802+P30281); experiment: Inhibition of human full length N-terminal GST-fusion protein CDK4/GST-tagged Cyclin D3 expressed in baculovirus using DYRKtide-F as substrate at 0.1 uM after 1 hr by off-chip Mobility Shift Assay
[29] = target: T1, Tubulin (Homo sapiens); experiment: Inhibition of tubulin polymerization in human HeLa cells assessed as reduction of microtubule formation at 30 nM after 6 hrs by DAPI staining-based immunofluorescence assay; assay type: cell-based
[30] = target: T1, Tubulin (Homo sapiens); experiment: Inhibition of tubulin polymerization in human HeLa cells assessed as reduction of microtubule formation at 1000 nM after 6 hrs by DAPI staining-based immunofluorescence assay; assay type: cell-based

Row | Structure (SMILES) | IC50 [1] [µM] | IC50 [2] [µM] | IC50 [3] [µM] | IC50 [4] [µM] | also measured
1 | CCOc1ccc2c(c1)Cc1c(Nc3ccccc3)n[nH]c1-2 | 0.0556 | 0.0204 | 0.0568 | 0.0602 | 
2 | COc1cc(Nc2n[nH]c3c2Cc2cc(OC)ccc2-3)cc(OC)c1 | 0.0046 | 0.0032 | 0.0074 | 0.007 | 
3 | Oc1ccc2c(c1)Cc1c(Nc3ccccc3)n[nH]c1-2 | > 0.1 | > 0.1 | > 0.1 | > 0.1 | 
4 | COc1ccc2c(c1)Cc1c(Nc3ccccc3O)n[nH]c1-2 | > 0.1 | > 0.1 | > 0.1 | > 0.1 | 
5 | COc1cccc(Nc2n[nH]c3c2Cc2ccccc2-3)c1 | > 0.1 | > 0.1 | > 0.1 | > 0.1 | inhibition [5]: inactive
6 | CC(=O)O[C@H]1C(=O)[C@@]2(C)[C@H]([C@H](OC(=O)c3ccccc3)[C@]3(O)C[C@H](OC(=O)[C@H](O)[C@@H](NC(=O)c4ccccc4)c4ccccc4)C(C)=C1C3(C)C)[C@]1(OC(C)=O)CO[C@@H]1C[C@@H]2O |  |  |  |  | inhibition [6]: inactive
7 | c1ccc(Nc2n[nH]c3c2Cc2ccccc2-3)cc1 | > 0.1 | > 0.1 | > 0.1 | > 0.1 | Activity [7]: inactive; Activity [8]: inactive
8 | COc1ccc(Nc2n[nH]c3c2Cc2cc(OC)ccc2-3)cc1 | > 0.1 | > 0.1 | > 0.1 | > 0.1 | 
9 | COc1ccc2c(c1)Cc1c(Nc3cccc(C(=O)O)c3)n[nH]c1-2 | > 0.1 | > 0.1 | > 0.1 | > 0.1 | 
10 | COc1cc2c(c(OC)c1OC)-c1ccc(OC)c(=O)cc1[C@@H](NC(C)=O)CC2 |  |  |  |  | Activity [9]: Active
11 | COc1ccc2c(c1)Cc1c(Nc3ccc(OC)c(OC)c3)n[nH]c1-2 | > 0.1 | > 0.1 | 0.0863 | 0.0909 | 
12 | COc1ccc2c(c1)Cc1c(Nc3cccc(OCC(C)C)c3)n[nH]c1-2 | 0.0255 | 0.0199 | 0.0566 | 0.0505 | inhibition [10]: Active; inhibition [11]: Active
13 | COC(=O)c1cccc(Nc2n[nH]c3c2Cc2cc(OC)ccc2-3)c1 | 0.0022 | 0.00247 | 0.0027 | 0.00264 | Activity [12]: inactive; Activity [13]: inactive; inhibition [14]: inactive; Activity [15]: inactive; inhibition [16]: inactive; Activity [17]: inactive; inhibition [18]: > 82%; inhibition [19]: > 82%; inhibition [20]: inactive; inhibition [21]: > 82%; Activity [22]: inactive; Activity [23]: inactive; inhibition [24]: Dose-dependent effect; inhibition [25]: Active; Activity [8]: Active; inhibition [26]: inactive; inhibition [27]: inactive; inhibition [28]: inactive; inhibition [29]: Active
14 | COc1cccc(Nc2n[nH]c3c2Cc2cc(OC)ccc2-3)c1 | 0.0088 | 0.0028 | 0.00653 | 0.0047 | 
15 | COc1ccc2c(c1)Cc1c(Nc3cccc(O)c3)n[nH]c1-2 | > 0.1 | 0.0071 | 0.0109 | 0.0086 | 
16 | COc1ccc2c(c1)Cc1c(Nc3ccccc3OC)n[nH]c1-2 | > 0.1 | 0.032 | 0.0862 | > 0.1 | 
17 | COc1ccc2c(c1)Cc1c-2n[nH]c1Nc1ccccc1 | 0.0536 | 0.0089 | 0.0266 | 0.0356 | inhibition [30]: inactive; inhibition [5]: inactive
